Legend:
Mus musculus [1] = assay: Ability to inhibit TNF-alpha in LPS-stimulated mice after oral administration by ELISA assay; format: functional; set-up: concentration or dose not given beside the values
Mus musculus [2] = assay: Ability to augment IL-10 in LPS-stimulated mice after oral administration by ELISA assay; format: functional; set-up: concentration or dose not given beside the values
[3] = molecular target: T1, 5-hydroxytryptamine receptor 1A (Rattus norvegicus, UniProt P19327); assay: Binding affinity towards 5-hydroxytryptamine 1A receptor
T1 sequence (P19327 whole entry): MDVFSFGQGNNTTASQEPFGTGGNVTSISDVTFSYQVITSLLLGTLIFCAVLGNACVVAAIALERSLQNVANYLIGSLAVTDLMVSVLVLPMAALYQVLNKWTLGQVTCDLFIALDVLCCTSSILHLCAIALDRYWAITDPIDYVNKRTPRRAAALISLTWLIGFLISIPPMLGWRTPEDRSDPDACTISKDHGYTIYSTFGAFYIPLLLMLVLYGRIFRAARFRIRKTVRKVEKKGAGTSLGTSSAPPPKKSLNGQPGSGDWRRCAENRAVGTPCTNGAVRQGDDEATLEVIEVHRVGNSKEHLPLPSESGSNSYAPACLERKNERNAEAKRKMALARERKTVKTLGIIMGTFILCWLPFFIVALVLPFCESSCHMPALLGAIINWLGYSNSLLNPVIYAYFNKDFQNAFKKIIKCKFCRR

[4] = molecular target: T2, Adrenergic receptor alpha-1 (Rattus norvegicus, UniProt P15823+P23944+P43140); assay: Binding affinity towards Alpha-1 adrenergic receptor; format: protein assay
T2 sequence (P15823 whole entry): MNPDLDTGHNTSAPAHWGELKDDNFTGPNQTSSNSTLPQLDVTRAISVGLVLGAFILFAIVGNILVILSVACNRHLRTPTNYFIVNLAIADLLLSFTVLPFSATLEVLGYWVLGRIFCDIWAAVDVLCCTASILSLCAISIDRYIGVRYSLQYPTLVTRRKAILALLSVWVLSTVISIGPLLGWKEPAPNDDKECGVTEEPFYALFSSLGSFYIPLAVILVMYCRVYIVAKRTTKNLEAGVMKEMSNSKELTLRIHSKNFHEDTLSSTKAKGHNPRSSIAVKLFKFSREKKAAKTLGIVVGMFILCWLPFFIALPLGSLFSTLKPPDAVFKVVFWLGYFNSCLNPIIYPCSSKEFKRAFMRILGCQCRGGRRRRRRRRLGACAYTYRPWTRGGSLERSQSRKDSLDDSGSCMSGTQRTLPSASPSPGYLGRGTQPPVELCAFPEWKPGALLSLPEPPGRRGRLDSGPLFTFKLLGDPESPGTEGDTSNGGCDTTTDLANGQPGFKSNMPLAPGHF
T2 sequence (P23944 whole entry): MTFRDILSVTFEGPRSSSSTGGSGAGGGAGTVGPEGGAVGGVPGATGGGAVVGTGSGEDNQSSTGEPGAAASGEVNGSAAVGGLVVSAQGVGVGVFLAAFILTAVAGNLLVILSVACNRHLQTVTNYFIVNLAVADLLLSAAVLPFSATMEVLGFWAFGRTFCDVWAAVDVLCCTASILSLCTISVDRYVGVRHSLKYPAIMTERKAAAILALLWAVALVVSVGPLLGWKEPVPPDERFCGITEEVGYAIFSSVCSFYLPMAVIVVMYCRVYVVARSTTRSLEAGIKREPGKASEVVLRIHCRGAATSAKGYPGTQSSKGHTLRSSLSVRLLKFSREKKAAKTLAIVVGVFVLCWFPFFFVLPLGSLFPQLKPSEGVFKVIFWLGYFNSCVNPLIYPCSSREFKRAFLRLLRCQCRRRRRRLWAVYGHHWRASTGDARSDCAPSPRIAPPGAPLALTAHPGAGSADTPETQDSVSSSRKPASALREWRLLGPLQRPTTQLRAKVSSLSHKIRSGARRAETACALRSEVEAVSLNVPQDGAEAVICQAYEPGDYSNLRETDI
T2 sequence (P43140 whole entry): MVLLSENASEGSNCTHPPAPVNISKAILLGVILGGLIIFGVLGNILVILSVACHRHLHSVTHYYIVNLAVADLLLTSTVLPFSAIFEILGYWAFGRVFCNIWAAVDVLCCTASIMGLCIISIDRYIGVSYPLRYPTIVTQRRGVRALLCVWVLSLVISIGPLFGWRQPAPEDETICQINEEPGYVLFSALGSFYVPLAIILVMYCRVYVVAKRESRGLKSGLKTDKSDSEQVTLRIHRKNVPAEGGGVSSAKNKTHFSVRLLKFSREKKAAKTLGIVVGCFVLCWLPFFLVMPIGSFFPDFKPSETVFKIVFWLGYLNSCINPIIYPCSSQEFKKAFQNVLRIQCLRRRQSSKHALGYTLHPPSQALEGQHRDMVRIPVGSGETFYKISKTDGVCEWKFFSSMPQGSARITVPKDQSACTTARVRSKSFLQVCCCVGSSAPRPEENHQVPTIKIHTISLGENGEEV

[5] = molecular target: Serotonin 2 (5-HT2) receptor (Homo sapiens, UniProt P41595+P28223+P28335); assay: Binding affinity towards 5-hydroxytryptamine 2 receptor; format: protein assay
D(2) dopamine receptor = D(2) dopamine receptor (Bos taurus, UniProt P20288); assay: Binding affinity towards Dopamine receptor D2
D(2) dopamine receptor, sequence (P20288 whole entry): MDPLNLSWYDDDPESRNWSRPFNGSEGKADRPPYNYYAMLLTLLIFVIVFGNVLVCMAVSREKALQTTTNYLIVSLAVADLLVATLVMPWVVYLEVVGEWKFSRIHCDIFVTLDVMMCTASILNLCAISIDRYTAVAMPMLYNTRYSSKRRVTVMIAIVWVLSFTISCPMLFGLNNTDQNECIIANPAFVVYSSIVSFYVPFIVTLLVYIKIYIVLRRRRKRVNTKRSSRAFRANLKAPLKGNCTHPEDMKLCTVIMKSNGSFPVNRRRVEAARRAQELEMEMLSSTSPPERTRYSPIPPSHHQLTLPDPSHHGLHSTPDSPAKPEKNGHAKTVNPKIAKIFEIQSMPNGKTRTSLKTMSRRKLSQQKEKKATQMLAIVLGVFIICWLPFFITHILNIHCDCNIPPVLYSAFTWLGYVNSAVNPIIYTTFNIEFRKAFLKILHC

[6] = Oral bioavailability at a dose of 30 mg/kg in rats; format: ADME, organism-based; conditions: rat, in vivo
Mus musculus [7] = assay: Ability of compound to prevent shock death in mice expressed as no of mice that survived out of 10 at a dose of 10 mg/kg; format: functional
Mus musculus [8] = species: Mus musculus; assay: Dose that prevented shock death in mice; format: functional

In the case of `N/C(S)=N/Cc1ccc(CCCCN2CCN(c3ccccc3)CC2)cc1`, the Inhibition (Mus musculus [1]) is reported as 69% and the “IL-10 level (% of control)” value (Mus musculus [2]) is reported as 129%.

Work on `CC(=O)NCc1ccc(CN2CCN(c3ccc(F)cc3)CC2)cc1` yielded an Inhibition (Mus musculus [1]) of 87%, a Ki [3] greater than 1 µM and a Ki [4] greater than 1 µM. For the same compound, the Ki [5] was greater than 1 µM, the “IL-10 level (% of control)” value (Mus musculus [2]) was 1494% and the Ki (D(2) dopamine receptor) was greater than 1 µM.

Compound `CC(=O)NCc1ccc(CN2CCN(c3ccccc3)CC2)cc1` has an Inhibition (Mus musculus [1]) of 89%, a Ki [3] of 0.14 µM and a Ki [4] greater than 1 µM. For the same compound, the Ki [5] was greater than 1 µM, the “IL-10 level (% of control)” value (Mus musculus [2]) was 376% and the Ki (D(2) dopamine receptor) was greater than 1 µM.

For `CC(=O)Nc1ccc(CCCCN2CCN(c3ccccc3)CC2)cc1`, the Inhibition (Mus musculus [1]) was 88% and the “IL-10 level (% of control)” value (Mus musculus [2]) was 585%.

With `Nc1nc(-c2ccc(CCCCN3CCN(c4ccccc4)CC3)cc2)cs1` the Inhibition (Mus musculus [1]) was 87%, the Ki [3] was 0.0038 µM and the Ki [4] was 0.0079 µM. The Ki [5] was 0.037 µM, the “IL-10 level (% of control)” value (Mus musculus [2]) was 382% and the Ki (D(2) dopamine receptor) was 0.0055 µM.

In the case of `CC(=O)NCCc1ccc(CCCCN2CCN(c3ccccc3)CC2)cc1`, the Inhibition (Mus musculus [1]) is reported as 76% and the “IL-10 level (% of control)” value (Mus musculus [2]) is reported as 292%.

Compound `CC(=O)NCc1ccc(CCCN2CCN(c3ccccc3)CC2)cc1` has an Inhibition (Mus musculus [1]) of 97%, a Ki [3] of 0.033 µM and a Ki [4] of 0.0064 µM. For the same compound, the Ki [5] was 0.16 µM, the “IL-10 level (% of control)” value (Mus musculus [2]) was 1805% and the Ki (D(2) dopamine receptor) was 0.34 µM.

In the case of `CC(=O)NCc1ccc(CN2CCN(c3ccc(F)cc3F)CC2)cc1`, the bioavailability [6] is reported as 95.5%, the Inhibition (Mus musculus [1]) is reported as 91% and the Survival (Mus musculus [7]) is reported as 8. It also gave a Ki [4] greater than 1 µM, a Dose (Mus musculus [8]) of 10 mg/kg and a Ki [5] greater than 1 µM. For the same compound, the “IL-10 level (% of control)” value (Mus musculus [2]) was 2293% and the Ki (D(2) dopamine receptor) was greater than 1 µM.

With `c1ccc(CCCCN2CCN(c3ccccc3)CC2)cc1` the Inhibition (Mus musculus [1]) was 77% and the “IL-10 level (% of control)” value (Mus musculus [2]) was 337%.

For `COc1ccc(N2CCN(Cc3ccc(CNC(C)=O)cc3)CC2)cc1`, the Inhibition (Mus musculus [1]) was 74%, the Ki [3] was greater than 1 µM and the Ki [4] was greater than 1 µM. The Ki [5] was greater than 1 µM, the “IL-10 level (% of control)” value (Mus musculus [2]) was 449% and the Ki (D(2) dopamine receptor) was greater than 1 µM.

With `CC(=O)NCc1ccc(CN2CCN(c3ccc(Cl)cc3)CC2)cc1` the Inhibition (Mus musculus [1]) was 65%, the Ki [3] was greater than 1 µM and the Ki [4] was greater than 1 µM. The Ki [5] was greater than 1 µM, the “IL-10 level (% of control)” value (Mus musculus [2]) was 361% and the Ki (D(2) dopamine receptor) was greater than 1 µM.

Work on `CC(=O)NCc1ccc(CCCCN2CCN(c3ccccc3)CC2)cc1` yielded an Inhibition (Mus musculus [1]) of 94%, a Ki [3] of 0.006 µM and a Ki [4] of 0.0046 µM. For the same compound, the Ki [5] was 0.048 µM, the “IL-10 level (% of control)” value (Mus musculus [2]) was 1337% and the Ki (D(2) dopamine receptor) was 0.049 µM.

For `N=C(N)NCc1ccc(CCCCN2CCN(c3ccccc3)CC2)cc1`, the Inhibition (Mus musculus [1]) was 39% and the “IL-10 level (% of control)” value (Mus musculus [2]) was 124%.

For `NC(=O)NCc1ccc(CCCCN2CCN(c3ccccc3)CC2)cc1`, the Inhibition (Mus musculus [1]) was 85% and the “IL-10 level (% of control)” value (Mus musculus [2]) was 253%.

In the case of `CC(=O)NCc1ccc(CCN2CCN(c3ccccc3)CC2)cc1`, the Inhibition (Mus musculus [1]) is reported as 96%, the Ki [3] is reported as 0.0029 µM and the Ki [4] is reported as 0.069 µM. The Ki [5] was 0.13 µM, the “IL-10 level (% of control)” value (Mus musculus [2]) was 2784% and the Ki (D(2) dopamine receptor) was 0.17 µM.

In the case of `CC(=O)NCCCc1ccc(CCCCN2CCN(c3ccccc3)CC2)cc1`, the Inhibition (Mus musculus [1]) is reported as 68% and the “IL-10 level (% of control)” value (Mus musculus [2]) is reported as 146%.

Source: ChEMBL document CHEMBL1133349, “Novel phenylpiperazine derivatives as dual cytokine regulators with TNF-alpha suppressing and IL-10 augmenting activity” (Bioorg Med Chem Lett, 2000)
